Several values for one entry are separate records, joined by “and”; a condition that tells them apart may be missing. Equal values may be shown once. Read-outs that look alike come from different tables or passages of the source.
Legend:
[1] = tested on: HeLa (cervical carcinoma); assay: MTT proliferation assay, HeLa cells; assay type: cell-based, human; details: 72 h, read-out: IC50 (50% growth inhibition) HeLa
Experimental: (§1) This study was set out to examine the anti-proliferative effects of coumarin derivates (3–18) on human tumor cell lines and normal (diploid) human fibroblasts.
(§2) Cell culturing: Human cell lines HeLa (cervical carcinoma), SW620 (colorectal adenocarcinoma, metastatic), MCF-7 (breast epithelial adenocarcinoma, metastatic), HepG2 (hepatocellular carcinoma) and BJ (normal diploid human fibroblasts) were cultured as monolayers and maintained in Dulbecco’s modified Eagle medium (DMEM) supplemented with 10% fetal bovine serum (FBS), 2 mM L-glutamine, 100 U/mL penicillin and 100 μg/mL streptomycin in a humidified atmosphere with 5% CO2 at 37 °C.
(§3) Proliferation assay: The cell lines were inoculated into a series of standard 96-well microtiter plates on day 0 at seeding density of 3,000–6,000 cells per well depending upon their specific doubling times. Freshly prepared dilutions of test compounds in culture medium in the concentration range 1 × 10^−8–1 × 10^−4 M were added to the microtiter plates, and the cells were grown for further 72 h. The solvent (DMSO) was also tested for its potential inhibitory activity by adjusting its concentration to the values used for the preparation of the working concentrations (DMSO concentration never exceeded 0.1%). After 72 h of incubation, the cell growth rate was evaluated by performing the MTT assay: experimentally determined absorbance values were transformed into the cell percentage growth (PG) using the formulas proposed by NIH and described previously. This method directly relies on control cells behaving normally at the day of assay commencement because it compares the growth of treated cells with that of untreated cells in control wells on the same plate. The results are therefore a percentile difference from the calculated expected value. […] If, however, all of the tested concentrations produce PGs exceeding the respective reference level of effect (e.g., PG value of 50) for a given cell line, the highest tested concentration is assigned as the default value (in the screening data report that default value is preceded by a “>” sign). Each test point was performed in quadruplicate in three individual experiments. The results were statistically analyzed (ANOVA, Tukey post-hoc test at p < 0.05).

[2] = tested on: BJ (normal diploid human fibroblasts); assay: MTT proliferation assay, BJ normal fibroblasts; assay type: cell-based; details: 72 h, read-out: IC50 (50% growth inhibition) BJ
Experimental: as §1, §2, §3

[3] = tested on: MCF-7 (breast epithelial adenocarcinoma, metastatic); assay: MTT proliferation assay, MCF-7 cells; assay type: cell-based, human; details: read-out: IC50 (50% growth inhibition) MCF-7
Experimental: as §1, §2, §3

[4] = tested on: SW620 (colorectal adenocarcinoma, metastatic); assay: MTT proliferation assay, SW620 cells; assay type: cell-based, human; details: read-out: IC50 (50% growth inhibition) SW620
Experimental: as §1, §2, §3

[5] = tested on: HepG2 (hepatocellular carcinoma); assay: MTT proliferation assay, HepG2 cells; assay type: cell-based, human; details: 72 h, read-out: IC50 (50% growth inhibition) HepG2
Experimental: as §1, §2, §3

| Molecule | IC50 [1] | IC50 ([3]; 72 h) | IC50 ([4]; 72 h) | IC50 [5] | melting point | IC50 ([1]; Homo sapiens, HeLa) | IC50 ([3]; Homo sapiens, MCF7, 72 h) | IC50 ([4]; Homo sapiens, SW-620, 72 h) | IC50 ([5]; Homo sapiens) | IC50 [2] | IC50 ([2]; Homo sapiens, Fibroblast) |
| --- | --- | --- | --- | --- | --- | --- | --- | --- | --- | --- | --- |
| 1-((7-Hydroxy-2-oxo-2H-chromen-4-yl)methyl)-6-chloropurine [Compound 8] | > 100 µM | > 100 µM | > 100 µM | > 100 µM | – | – | – | – | – | > 100 µM | – |
| 1-((7-Hydroxy-2-oxo-2H-chromen-4-yl)methyl)purine [Compound 9] | > 100 µM | > 100 µM | > 100 µM | > 100 µM | – | – | – | – | – | > 100 µM | – |
| COC(=O)c1ncn(Cc2cc(=O)oc3cc(O)ccc23)n1 [Compound 3, Methyl 1-((7-hydroxy-2-oxo-2H-chromen-4-yl)methyl)-1,2,4-triazole-3-carboxylate] | – | – | – | – | 216 to 218 °C | > 100 µM | > 100 µM | > 100 µM | > 100 µM | – | > 100 µM |
| NC(=O)c1ncn(Cc2cc(=O)oc3cc(O)ccc23)n1 [Compound 4, 1-((7-Hydroxy-2-oxo-2H-chromen-4-yl)methyl)-1,2,4-triazole-3-carboxamide] | – | – | – | – | – | > 100 µM | > 100 µM | > 100 µM | > 100 µM | – | > 100 µM |
| COC(=O)c1ncn(Cc2cc(=O)oc3cc(OC)ccc23)n1 [Compound 5, Methyl 1-((7-Methoxy-2-oxo-2H-chromen-4-yl)methyl)-1,2,4-triazole-3-carboxylate] | – | – | – | – | 234 to 237 °C | > 100 µM | > 100 µM | > 100 µM | > 100 µM | – | > 100 µM |
| COc1ccc2c(Cn3cnc(C(N)=O)n3)cc(=O)oc2c1 [Compound 6, 1-((7-Methoxy-2-oxo-2H-chromen-4-yl)methyl)-1,2,4-triazole-3-carboxamide] | 35.5 ± 13.5 µM | – | – | – | – | 35 µM | > 100 µM | > 100 µM | > 100 µM | – | > 100 µM |
| N#Cc1ncn(Cc2cc(=O)oc3cc(O)ccc23)c1C#N [Compound 7, 1-((7-Hydroxy-2-oxo-2H-chromen-4-yl)methyl)-4,5-dicyanoimidazole] | – | – | – | – | 238 to 240 °C | > 100 µM | > 100 µM | > 100 µM | > 100 µM | – | > 100 µM |

The next lines start with results.

| IC50 [1] | IC50 ([3]; 72 h) | IC50 ([4]; 72 h) | IC50 [5] | melting point | IC50 ([1]; Homo sapiens, HeLa) | IC50 ([3]; Homo sapiens, MCF7, 72 h) | IC50 ([4]; Homo sapiens, SW-620, 72 h) | IC50 ([5]; Homo sapiens) | Molecule | IC50 [2] | IC50 ([2]; Homo sapiens, Fibroblast) |
| --- | --- | --- | --- | --- | --- | --- | --- | --- | --- | --- | --- |
| > 100 µM | > 100 µM | > 100 µM | > 100 µM | – | – | – | – | – | 1-(4-Hydroxy-2-(2-hydroxy-4-methoxyphenyl)butyl)guanine [Compound 18] | > 100 µM | – |
| 34 ± 8.4 µM | > 100 µM | 35 µM and 35.4 µM | 25 µM and 25.6 µM | – | – | – | – | – | 1-((7-Hydroxy-2-oxo-2H-chromen-4-yl)methyl)-2-amino-6-chloropurine [Compound 10] | > 100 µM | – |
| > 100 µM | > 100 µM | > 100 µM | > 100 µM | – | – | – | – | – | 1-((7-Hydroxy-2-oxo-2H-chromen-4-yl)methyl)-2-aminopurine [Compound 11] | > 100 µM | – |
| > 100 µM | > 100 µM | > 100 µM | > 100 µM | – | – | – | – | – | 1-((7-Methoxy-2-oxo-2H-chromen-4-yl)methyl)-2-amino-6-chloropurine [Compound 12] | > 100 µM | – |
| > 100 µM | > 100 µM | > 100 µM | > 100 µM | – | – | – | – | – | 1-((7-Methoxy-2-oxo-2H-chromen-4-yl)methyl)guanine [Compound 13] | > 100 µM | – |
| – | – | – | – | – | > 100 µM | > 100 µM | > 100 µM | > 100 µM | CCOC(=O)c1ncn(CC(CCO)c2ccc(OC)cc2O)n1 (stereo not drawn) [Compound 14, Ethyl 1-(4-hydroxy-2-(2-hydroxy-4-methoxyphenyl)butyl)-1,2,4-triazole-3-carboxylate] | – | > 100 µM |
| – | – | – | – | – | > 100 µM | > 100 µM | > 100 µM | > 100 µM | COc1ccc(C(CCO)Cn2cnc(C(N)=O)n2)c(O)c1 (stereo not drawn) [Compound 15, 1-(4-Hydroxy-2-(2-hydroxy-4-methoxyphenyl)butyl)-1,2,4-triazole-3-carboxamide] | – | > 100 µM |
| – | – | – | – | – | > 100 µM | > 100 µM | > 100 µM | > 100 µM | COc1ccc(C(CCO)Cn2cncn2)c(O)c1 (stereo not drawn) [Compound 16, 1-(4-hydroxy-2-(2-hydroxy-4-methoxyphenyl)butyl)-1,2,4-triazole] | – | > 100 µM |
| – | – | – | – | – | > 100 µM | > 100 µM | > 100 µM | > 100 µM | COc1ccc(C(CCO)Cn2cnc(CO)n2)c(O)c1 (stereo not drawn) [Compound 17, ethyl 1-(4-hydroxy-2-(2-hydroxy-4-methoxyphenyl)butyl)-1,2,4-triazole-3-hydroxymethyl] | – | > 100 µM |
